Data on 19 compounds can be found in patent publication US11117907B2, “Curcuminoid-inspired synthetic compounds as anti-tumor agents” (University of North Florida Board of Trustees, priority 2017, dated 2021).

Structures are written as SMILES. Like-named read-outs stand apart in the source and are kept apart here.

As a reminder, the IC50 is the midpoint of a concentration-inhibition curve. Usually melting point stands for the temperature, or range, at which the solid turns liquid.

Series [1] deals with NCI-60 human tumor cell lines. Kind of series: NCI-60 one-dose screening (10^−5 M). In kind it is cell-based.
Text: The CUR—BF2 adducts 5, 10, and 19, the (CF3)2—CUR 20 and the (CF3)2—CUR—BF2 adduct 21 of FIG. 2 were screened at the National Cancer Institute using NCI-60 cell one-dose protocol (10^−5 M).
(§1) Samples were submitted to the National Cancer Institute (NCI of NIH) Developmental Therapeutics anticancer screening program (DTP) for human tumor cell line assay by NCI-60 screening against leukemia, lung, colon, and CNS cancers, as well as melanoma, ovarian, renal, prostate, and breast cancers. Compounds are initially tested at a single dose of 10-5 molar. Data are reported as mean graph of percent growth (GP). Growth inhibition is shown by values between 0 and 100 and lethality by values less than zero. Compounds that meet selection criteria based on one-dose assay are then tested against 60 cell panel at five concentrations.
as §1, with “NCI-60 assay: Samples” for “Samples”, “10^−5” for “10-5”
NCI-60 assay: samples were submitted to the National Cancer Institute (NCI of NIH) Developmental Therapeutics anticancer screening program (DTP) for human tumor cell line assay by NCI-60 screening against leukemia, lung, colon, and CNS cancers, as well as melanoma, ovarian, renal, prostate, and breast cancers. Compounds are initially tested at a single dose of 10^−5 molar. Data are reported as mean graph of percent growth (GP). Selected data output are shown in SI file. Growth inhibition is represented by values between 0 and 100 and lethality by values less than zero.

A further series has as its system MDA231. The series is described as follows: In vitro cell viability bioassay, MTT, MDA231. Format: cell-based, human. The settings on record: Table 4, repeats Table 3, read-out: IC50 MDA231 (Breast cancer). The protocol:
(§2) To evaluate the cell growth inhibitory and apoptosis inducing effects of the fluorinated curcuminoids and their BF2 adducts, in-vitro bioassay tests were performed on […] different cancer cell lines namely: MOLT-4 (human leukemia suspension cancer cell line), PC3 and LNCap (human […] prostate cancer cell lines respectively), A549 (lung cancer), and MDA231 (breast cancer), and the results are sketched in Table 3.
(§3) The cell viability/anti-proliferative activity of the curcuminoids against PC3 (human androgen-insensitive prostate cancer cell line), LNCap (human-androgen sensitive prostate cancer cell line), A549 (lung cancer), and MDA231 (breast cancer) were determined by means of 3-(4,5-dimethyl-2-thiazolyl)-2,5-diphenyl-2H-tetrazolium bromide (MTT) assay (the tetrazolium salt was a commercial sample). (R. N. Khaybullin, et al., Molecules, 2014, 19, 18676-18689). The ability of the curcuminoids to affect proliferations of suspension cell lines (MOLT-4) was tested by the CellTiter-Glo® Luminescent Cell Viability Assay (purchased from Promega Madison, Wis., USA) to determine the number of viable cells in culture based on quantitation of the ATP present. The IC50 values were obtained from fitting data with GraphPad software to determine the growth inhibition in the presence of test compounds. (R. N. Khaybullin, et al., Molecules, 2014, 19, 18676-18689).

Another series concerns MOLT-4. Kind of series: In vitro cell viability bioassay, CellTiter-Glo, MOLT-4. Format: cell-based, human. The settings on record: Table 5; repeats Table 3; read-out: Leukemia MOLT-4 IC50. The protocol: as §2, §3
A general note: Cellular ATP, detected with luciferase, serves as a proxy for viable cell number.

Consider `F[B-]1(F)OC(/C=C/c2ccc(C(F)(F)F)cc2)=CC(/C=C/c2ccc(C(F)(F)F)cc2)=[O+]1`, for which the NCI-60 cell screening entry in series [1] (words in the IC50 MDA231 column of Table 4) was “NCI-60 cell screening modest activity”.

Consider `Fc1ccc(/C=C/C2=CC(/C=C/c3ccc(F)cc3)=[O+][B-](F)(F)O2)cc1`, for which the IC50 in the series on MDA231 turned out to be 1 µM.

On to `COc1cc(/C=C/C(=O)C(F)(F)C(=O)/C=C/c2ccc(OC)c(OC)c2)ccc1O`, for which the half-inhibitory concentration (IC50) in the series with MDA231 (Homo sapiens, MDA-MB-231) came to 2.2 µM.

Turning to `O=C(/C=C/c1ccc(F)cc1)C(F)=C(O)/C=C/c1ccc(F)cc1`, the half-inhibitory concentration (IC50) with MDA231 was 12 µM.

For `COc1cc(/C=C/C(=O)C(F)=C(O)/C=C/c2ccc(O)c(OC)c2)ccc1O`, the half-maximal inhibitory concentration (IC50) with MDA231 was determined as 6.2 µM.

With `F[B-]1(F)OC(/C=C/c2csc3ccccc23)=CC(/C=C/c2csc3ccccc23)=[O+]1` [7-BF2, Benzothiophene-3-Curcuminoid-BF2 adduct], the “anti-proliferative activity by the NCI-60 in-vitro assay” value in series [1] (10^−5 molar, Example 5) was “notable anti-proliferative activity”.

Turning to `O=C(/C=C/c1ccc(SC(F)(F)F)cc1)/C=C(O)\C=C\c1ccc(SC(F)(F)F)cc1` [compound 19 of FIG. 35, (1E,4E,6E)-5-Hydroxy-1,7-bis(4-trifluoromethylthiophenyl)hepta-1,4,6-trien-3-one], the “anti-proliferative potency against HCT-116” value in series [1] (dose mean graph, FIG. 22) is “high anti-proliferative potency”.

`COc1cc(C=Cc2cc(C=Cc3cc(OC)c(OC)c(OC)c3)n(-c3ccc(OC(F)(F)F)cc3)n2)cc(OC)c1OC` [compound 42 of FIG. 43, 3,5-bis-(3,4,5-Trimethoxy-styryl)-1-(4-trifluoromethoxyphenyl) pyrazole] showed a melting point of 140 to 142 °C.

`COc1ccc(/C=C/C(=O)C(F)=C(O)/C=C/c2ccc(OC)c(OC)c2)cc1OC` [drawing 69]: the IC50 in the series with MDA231 was found to be 0.023 µM.

With `COc1ccc(/C=C/C(=O)C=C(O)/C=C/c2ccc(OC)c(OC)c2)cc1OC` [drawing 70], in the series on MDA231, the IC50 was determined as 0.28 µM.

Consider `COc1cc(F)c(/C=C/C2=CC(/C=C/c3cc(OC)c(OC)cc3F)=[O+][B-](F)(F)O2)cc1OC` [drawing 72], for which the IC50 in the series on MDA231 was determined as 1.7 µM.

For the compound `COc1ccc(/C=C/C2=CC(/C=C/c3ccc(OC)c(OC)c3)=[O+][B-](F)(F)O2)cc1OC` [drawing 73], in the series on MDA231, the IC50 is 2 µM.

For `COc1cc(/C=C/C(=O)C=C(O)/C=C/c2ccc(O)c(OC)c2)ccc1O` [drawing 75], in the series on MDA231, the IC50 was found to be 11.5 µM.

Turning to `O=C(/C=C/c1ccc(F)cc1)C(F)(F)C(=O)/C=C/c1ccc(F)cc1` [drawing 77], the concentration for half-maximal inhibition (IC50) in the series on MDA231 (Homo sapiens, MDA-MB-231) stood at 6.7 µM.

For `COc1cc(/C=C/C(=O)C=C(O)/C=C/c2ccc(O)c(OC)c2)ccc1O` [drawing 82], the IC50 in the series on MOLT-4 is 19 µM.

On to `COc1ccc(/C=C/C(=O)C=C(O)/C=C/c2ccc(OC)c(OC)c2)cc1OC` [drawing 83], for which the IC50 in the series with MOLT-4 was determined as 0.043 µM.

Turning to `COc1ccc(/C=C/C2=CC(/C=C/c3ccc(OC)c(OC)c3)=[O+][B-](F)(F)O2)cc1OC` [drawing 84], in the series on MOLT-4, the 50% inhibitory concentration (IC50) turned out to be 0.00056 µM.

In the case of `COc1ccc(/C=C/C(=O)C(F)=C(O)/C=C/c2ccc(OC)c(OC)c2)cc1OC` [drawing 85], the IC50 with MOLT-4 came out at 0.076 µM.

For the compound `COc1cc(F)c(/C=C/C2=CC(/C=C/c3cc(OC)c(OC)cc3F)=[O+][B-](F)(F)O2)cc1OC` [drawing 86], the concentration for half-maximal inhibition (IC50) in the series with MOLT-4 came to 0.01 µM.
